Measurements taken from ChEMBL document CHEMBL4052722, “Virtual screening, synthesis and biological evaluation of DNA intercalating antiviral agents” (Bioorg Med Chem Lett, 2017).

What was measured:
Vaccinia virus [1] = assay: Antiviral activity against Vaccinia virus LIVP harboring GFP infected in African green monkey CV1 cells assessed as GFP expression at 10 uM preincubated for 4 hrs with cells followed by viral infection measured after 24 hrs by flow cytometric analysis relative to control; format: functional, Orthopoxvirus vaccinia
Vaccinia virus [2] = assay: (§1) Antiviral activity against Vaccinia virus LIVP harboring GFP infected in African green monkey CV1 cells assessed as virus titer at 1 uM preincubated with cells for 4 hrs followed by viral infection measured after 48 hrs by gentian violet staining-based microscopic analysis (reference value: 3.3 +/- 0.1 log10PFU/ml); format: functional, Orthopoxvirus vaccinia
Vaccinia virus [3] = assay: as §1, with “at 10” for “at 1”; format: functional, Orthopoxvirus vaccinia
Vaccinia virus [4] = assay: as §1, with “at 30” for “at 1”; format: functional, Orthopoxvirus vaccinia
Vaccinia virus [5] = assay: Antiviral activity against Vaccinia virus LIVP harboring GFP infected in African green monkey CV1 cells assessed as virus titer preincubated with cells for 4 hrs followed by viral infection measured after 48 hrs by gentian violet staining-based microscopic analysis; format: functional; settings: Orthopoxvirus vaccinia, CV-1
Vaccinia virus [6] = assay: Antiviral activity against Vaccinia virus LIVP harboring GFP infected in African green monkey CV1 cells assessed as inhibition of GFP expression at 30 to 50 uM preincubated for 4 hrs with cells followed by viral infection measured after 24 hrs by flow cytometric analysis relative to control; format: functional, Orthopoxvirus vaccinia
Vaccinia virus [7] = assay: as §1, with “at 5” for “at 1”; format: functional, Orthopoxvirus vaccinia
Vaccinia virus [8] = assay: as §1, with “at 50” for “at 1”; format: functional, Orthopoxvirus vaccinia

## CN1CCN(CCn2c3ccccc3c3nc4ccccc4nc32)CC1
Vaccinia virus [1]
  Activity: 91%

## CN(C)CCn1c2ccccc2c2nc3ccccc3nc21
Vaccinia virus [1]
  Activity: 67%

## CCCCN(C)CCn1c2ccccc2c2nc3ccccc3nc21
Vaccinia virus [1]
  Activity: 77%

## O=C(CN1CCCCCC1)NN1C(=O)c2cccc3cccc(c23)C1=O
Vaccinia virus [1]
  Activity: 111%

## CCN(CC)CCNC(=O)Cn1c2ccccc2c2nc3ccccc3nc21
Vaccinia virus [1]
  Activity: 67%

## O=C(Cn1c2ccccc2c2nc3ccccc3nc21)NCCN1CCOCC1
Vaccinia virus [1]
  Activity: 125%

## CN(C)CCCNC(=O)CCCn1c2ccccc2c2nc3ccccc3nc21
Vaccinia virus [1]
  Activity: 111%

## Cc1ccc2c(c1)c1nc3ccccc3nc1n2CCN1CCN(C)CC1
Vaccinia virus [1]
  Activity: 111%

## COC(=O)CN(C)CCCN1C(=O)c2cccc3cccc(c23)C1=O
Vaccinia virus [1]
  Activity: 83%

## CCCCN(CCO)CCN1C(=O)c2cccc3cccc(c23)C1=O
Vaccinia virus [1]
  Activity: 83%

## CN1CCN(CCN2C(=O)c3cccc4cccc(c34)C2=O)CC1
Vaccinia virus [1]
  Activity: 77%

## O=C(CCCn1c2ccccc2c2nc3ccccc3nc21)NCCN1CCCCC1
Vaccinia virus [1]
  Activity: 100%

## CN1CCN(CC(=O)NN2C(=O)c3cccc4cccc(c34)C2=O)CC1
Vaccinia virus [1]
  Activity: 48%

## CN(C)CCCNCCn1c2ccccc2c2nc3ccccc3nc21
Vaccinia virus [1]
  Activity: 45%
Vaccinia virus [2]
  Activity: 3.5 log10PFU
Vaccinia virus [3]
  Activity: 3.3 log10PFU
Vaccinia virus [4]
  Activity: 2.7 log10PFU
Vaccinia virus [5]
  IC50: 22 µM
Vaccinia virus [6]
  fold change (FC): 8 - 10

## CCN(CC)CCn1c2ccc(OC)cc2c2nc3ccccc3nc21
Vaccinia virus [1]
  Activity: 91%

## c1ccc2nc3c(nc2c1)c1ccccc1n3CCNCCCN1CCOCC1
Vaccinia virus [1]
  Activity: 48%
Vaccinia virus [2]
  Activity: 3.6 log10PFU
Vaccinia virus [3]
  Activity: 3.3 log10PFU
Vaccinia virus [4]
  Activity: 2.6 log10PFU
Vaccinia virus [5]
  IC50: 19 µM
Vaccinia virus [6]
  fold change (FC): 8 - 10

## CN(C)CCCOC(=O)Cn1c2ccccc2c2nc3ccccc3nc21
Vaccinia virus [1]
  Activity: 83%

## O=C(CN1CCCC1)NN1C(=O)c2cccc3cccc(c23)C1=O
Vaccinia virus [1]
  Activity: 111%

## CC(O)N(C)CCn1c2ccccc2c2nc3ccccc3nc21 (centres undefined)
Vaccinia virus [1]
  Activity: 91%

## O=C(Cn1c2ccccc2c2nc3ccccc3nc21)OCCN1CCCCC1
Vaccinia virus [1]
  Activity: 71%

## CN(C)CCOC(=O)CCCn1c2ccccc2c2nc3ccccc3nc21
Vaccinia virus [1]
  Activity: 125%

## CCN(CC)CCCNC(=O)Cn1c2ccccc2c2nc3ccccc3nc21
Vaccinia virus [1]
  Activity: 83%

## CCN(CC)CCNCCn1c2ccccc2c2nc3ccccc3nc21
Vaccinia virus [1]
  Activity: 91%

## CCN(CC)CCCNCCn1c2ccccc2c2nc3ccccc3nc21
Vaccinia virus [1]
  Activity: 28%
Vaccinia virus [2]
  Activity: 2.8 log10PFU
Vaccinia virus [3]
  Activity: 2.6 log10PFU
Vaccinia virus [7]
  Activity: 2.8 log10PFU
Vaccinia virus [5]
  IC50: < 1 µM

## O=C(CCCn1c2ccccc2c2nc3ccccc3nc21)NCCCN1CCOCC1
Vaccinia virus [1]
  Activity: 111%

## CN(CCO)CCN1C(=O)c2cccc3cccc(c23)C1=O
Vaccinia virus [1]
  Activity: 83%

## CCN(CCO)CCN1C(=O)c2cccc3cccc(c23)C1=O
Vaccinia virus [1]
  Activity: 71%

## CN(C)CCNC(=O)Cn1c2ccccc2c2nc3ccccc3nc21
Vaccinia virus [1]
  Activity: 59%

## CN(C)CCNC(=O)CCCn1c2ccccc2c2nc3ccccc3nc21
Vaccinia virus [1]
  Activity: 100%

## CC1CCN(CC(=O)NN2C(=O)c3cccc4cccc(c34)C2=O)CC1
Vaccinia virus [1]
  Activity: 125%

## COc1ccc2c(c1)c1nc3ccccc3nc1n2CCN1CCCCC1
Vaccinia virus [1]
  Activity: 23%
Vaccinia virus [2]
  Activity: 3.1 log10PFU
Vaccinia virus [3]
  Activity: 2.8 log10PFU
Vaccinia virus [8]
  Activity: 2.4 log10PFU
Vaccinia virus [5]
  IC50: 5 µM
Vaccinia virus [6]
  fold change (FC): 8 - 10

## CN(C)CCCNC(=O)Cn1c2ccccc2c2nc3ccccc3nc21
Vaccinia virus [1]
  Activity: 42%
Vaccinia virus [2]
  Activity: 3.4 log10PFU
Vaccinia virus [3]
  Activity: 2.8 log10PFU
Vaccinia virus [8]
  Activity: 2.5 log10PFU
Vaccinia virus [5]
  IC50: 10 µM
Vaccinia virus [6]
  fold change (FC): 8 - 10

## CN(C)CCNCCn1c2ccccc2c2nc3ccccc3nc21
Vaccinia virus [1]
  Activity: 77%

## CCN(CC)CCNC(=O)CCCn1c2ccccc2c2nc3ccccc3nc21
Vaccinia virus [1]
  Activity: 91%

## CCN(CC)CCCC(C)N1C(=O)c2cccc3cccc(c23)C1=O (centres undefined)
Vaccinia virus [1]
  Activity: 111%

## O=C(CCCn1c2ccccc2c2nc3ccccc3nc21)OCCN1CCOCC1
Vaccinia virus [1]
  Activity: 111%

## O=C(Cn1c2ccccc2c2nc3ccccc3nc21)NCCCN1CCOCC1
Vaccinia virus [1]
  Activity: 83%

## c1ccc2nc3c(nc2c1)c1ccccc1n3CCNCCN1CCCCC1
Vaccinia virus [1]
  Activity: 71%

## O=C(CCCn1c2ccccc2c2nc3ccccc3nc21)NCCN1CCOCC1
Vaccinia virus [1]
  Activity: 111%

## COC(=O)CN1CCN(CCN2C(=O)c3cccc4cccc(c34)C2=O)CC1
Vaccinia virus [1]
  Activity: 77%
